According to patent publication US12685746B2, “Cyclodextrin derivatives in the treatment or prevention of lysosomal neurodegenerative diseases” (CYCLOLAB CYCLODEXTRIN RESEARCH AND DEVELOPMENT LABORATORY …, priority 2020, dated 2026):
“Also recorded” adds a separate entry of the source.

How the values were obtained:
[1] = tested on: zebrafish model for Niemann Pick type C1 (U18666A administration); assay: Filipin staining of five day old zebrafish larvae pretreated with U18666A (cholesterol accumulation in the brain); assay type: in vivo, Danio rerio; conditions: for Reduction in U18666A induced cholesterol accumulation in the brain: result in words; for Heavy staining (number of larvae) / Light staining (number of larvae) / No staining (number of larvae): U18666A pretreated 5 dpf larvae; for No staining (number of larvae): fluorescence in head region; for Different from placebo: X2-test vs U18666A-placebo
Experimental: Several cyclodextrin derivatives were evaluated in a zebrafish model for Niemann Pick type C1 (U18666A administration). Cholesterol accumulation in the brain was quantified by filipin staining of Danio rerio Casper (albino strain) larvae. Results were compared with the reference compound Hydroxypropyl-β-cyclodextrin (HPBCD).
In this study the best performing Cyclodextrins were as follows: Heptakis(2,6-di-O-methyl)-beta cyclodextrin, Octakis(2,3,6-tri-O-methyl)-gamma cyclodextrin, Sualfadex sodium, Subetadex sodium Sugammadex sodium. Filipin staining of five day old zebrafish larvae (Danio rerio, Casper strain) pretreated with U18666A were studied.
Fertilized eggs were hatched and kept in an incubator at 28° C.
CDs were administered from Stock solutions (0.1%) in standard E3 medium. Preparation of E3 medium was as follows:
The stock solutions were diluted with E3. Compounds were administered in the swimming water. Each concentration was tested in 25 larvae.
Experimental compounds were tested at a 0.05% concentration. As reference Hydroxypropyl-β-cyclodextrin (Sigma) was tested at a 0.5% concentration.
Treated 5 dpf Casper larvae were fixed for 30 minutes in 4% paraformaldehyde. After washing (2 times) with PBS, they were stained for 30 minutes with 50 μg/mL filipin (Sigma) in PBS solution. Then larvae were washed (with PBS) twice.
Whole larvae were embedded and images were captured on a Dino-Lite Digital USB microscope for GFP/FITC recordings (AM4115T4). Images were evaluated by an independent assessor, unaware of the treatments. The assessor scored the fluorescence in the head region as none, light or heavy.
Data were analysed by means of X2-tests. All conditions were compared to the U18666A—placebo treatment group.
Fluorescence was measured as an index for the amount of filipin staining. The higher the filipin staining the more cholesterol accumulation there is in the brain. Individual larvae were scored (by a blinded assessor) as either heavy coloured, light coloured or not coloured at all.

[2] = tested on: 5 dpf Danio rerio larvae treated with U18666A; assay: Mobility testing of U18666A-treated zebrafish larvae (DanioVision, distance moved); assay type: in vivo; conditions: U18666A 1 microg/ml 16 hours, then CD 24 hours (0.5-5%); result in words, values only in FIG. 1
Experimental: Danio rerio larvae (strain AB, Casper) 5 days post fertilization (dpf) at day of testing were treated with U18666A dissolved in standard E3 medium. Reversal of U18666A (1 microg/ml) effects on overall activity of 5 dpf Danio rerio larvae by different CDs at different concentrations (0.5-5%) were tested. Larvae were pretreated with U18666A for 16 hours and thereafter treated with CD for 24 hours. Statistical analyses were performed for the individual experiments with two way ANOVA's followed by Tukey post hoc tests (** p<0.01). CDs were dissolved in standard E3 medium.
DanioVision Observation Chamber which is a complete system, designed for the high-throughput testing of zebrafish larvae in 48-wells plates. It includes an observation chamber and renowned EthoVision XT video tracking software to quantify distance moved by the animals. The results are graphically represented (distance moved—in arbritrary unit) in FIG. 1.

[3] = Phase solubility study: interaction of cyclodextrins with unesterified cholesterol; assay type: physicochemical; conditions: 24 hours equilibration at 25±3° C.
Experimental: Phase solubility studies were performed in 5 ml solutions at room temperature, wherein cyclodextrin solutions of discrete concentrations were weighed and excess amount of cholesterol was added. After 24 hours equilibration time at 25±3° C. (using magnetic stirrer at 500 RPM), the dissolved equilibrium cholesterol concentrations were determined by HPLC after filtration through a syringe filter having polyethylene sulfone membrane of 0.45 micron nominal pore size. The experimentally determined cholesterol concentrations in the presence of different concentrations of HPBCD, Sualfadex sodium, Subetadex sodium and Sugammadex sodium are listed in Table 3.

[4] = literature studies; cited from earlier work
[5] = dose tested 0.05% in swimming water
[6] = dose tested 0.5% in swimming water

6A,6B,6C,6D,6E,7F,6G-Heptakis-S-(2-carboxyethyl)-6A,6B,6C,6D,6E,6F,6G-heptathio-beta-cyclodextrin sodium salt [Subetadex sodium]
Reduction in U18666A induced cholesterol accumulation in the brain ([1]; 0.05%, sodium salt): significant cholesterol-accumulation hindering activity; also recorded: very strong reduction
Heavy staining (number of larvae) [1, 5]: 5
Light staining (number of larvae) [1, 5]: 15
No staining (number of larvae) [1, 5]: 4
Different from placebo ([1]; dose tested 0.05%): *** (*** p<0.001)
Motoric activity of the test animals [2]: improved motoric activity
Dissolved cholesterol concentration ([3]; CD concentration 5 w/w %): 0.062 mg/mL
Dissolved cholesterol concentration ([3]; CD concentration 10 w/w %): 0.092 mg/mL
Dissolved cholesterol concentration ([3]; CD concentration 15 w/w %): 0.246 mg/mL

CC(O)COC[C@H]1O[C@@H]2O[C@H]3[C@H](O)[C@@H](O)[C@@H](O[C@H]4[C@H](O)[C@@H](O)[C@@H](O[C@H]5[C@H](O)[C@@H](O)[C@@H](O[C@H]6[C@H](O)[C@@H](O)[C@@H](O[C@H]7[C@H](O)[C@@H](O)[C@@H](O[C@H]8[C@H](O)[C@@H](O)[C@@H](O[C@H]1[C@H](O)[C@H]2O)O[C@@H]8COCC(C)O)O[C@@H]7COCC(C)O)O[C@@H]6COCC(C)O)O[C@@H]5COCC(C)O)O[C@@H]4COCC(C)O)O[C@@H]3COCC(C)O (stereo partly drawn) [HPBCD, Hydroxypropyl-β-cyclodextrin]
Ototoxicity [4]: ototoxic
Reduction in U18666A induced cholesterol accumulation in the brain ([1]; 0.5%): significantly reduced
Heavy staining (number of larvae) [1, 6]: 9
Light staining (number of larvae) [1, 6]: 13
No staining (number of larvae) [1, 6]: 2
Different from placebo ([1]; dose tested 0.5%): * (* p<0.05)
Dissolved cholesterol concentration ([3]; CD concentration 5 w/w %): 0.28 mg/mL
Dissolved cholesterol concentration ([3]; CD concentration 10 w/w %): 0.98 mg/mL
Dissolved cholesterol concentration ([3]; CD concentration 15 w/w %): 2.06 mg/mL

COC[C@H]1O[C@@H]2O[C@H]3[C@H](O)[C@@H](OC)[C@@H](O[C@H]4[C@H](O)[C@@H](OC)[C@@H](O[C@H]5[C@H](O)[C@@H](OC)[C@@H](O[C@H]6[C@H](O)[C@@H](OC)[C@@H](O[C@H]7[C@H](O)[C@@H](OC)[C@@H](O[C@H]8[C@H](O)[C@@H](OC)[C@@H](O[C@H]1[C@H](O)[C@H]2OC)O[C@@H]8COC)O[C@@H]7COC)O[C@@H]6COC)O[C@@H]5COC)O[C@@H]4COC)O[C@@H]3COC [Heptakis(2,6-di-O-methyl)-beta cyclodextrin]
Reduction in U18666A induced cholesterol accumulation in the brain ([1]; 0.05%): only a small, non-significant, reduction
Heavy staining (number of larvae) [1, 5]: 13
Light staining (number of larvae) [1, 5]: 9
No staining (number of larvae) [1, 5]: 1

COC[C@H]1O[C@H]2O[C@H]3[C@H](OC)[C@@H](OC)[C@H](O[C@H]4[C@H](OC)[C@@H](OC)[C@H](O[C@H]5[C@H](OC)[C@@H](OC)[C@H](O[C@H]6[C@H](OC)[C@@H](OC)[C@H](O[C@H]7[C@H](OC)[C@@H](OC)[C@H](O[C@H]8[C@H](OC)[C@@H](OC)[C@H](O[C@H]9[C@H](OC)[C@@H](OC)[C@H](O[C@H]1[C@H](OC)[C@H]2OC)O[C@@H]9COC)O[C@@H]8COC)O[C@@H]7COC)O[C@@H]6COC)O[C@@H]5COC)O[C@@H]4COC)O[C@@H]3COC [Octakis(2,3,6-tri-O-methyl)-gamma cyclodextrin]
Reduction in U18666A induced cholesterol accumulation in the brain ([1]; 0.05%): only a small, non-significant, reduction
Heavy staining (number of larvae) [1, 5]: 13
Light staining (number of larvae) [1, 5]: 11
No staining (number of larvae) [1, 5]: 0

O=C([O-])CCSC[C@H]1O[C@@H]2O[C@H]3[C@H](O)[C@@H](O)[C@@H](O[C@H]4[C@H](O)[C@@H](O)[C@@H](O[C@H]5[C@H](O)[C@@H](O)[C@@H](O[C@H]6[C@H](O)[C@@H](O)[C@@H](O[C@H]7[C@H](O)[C@@H](O)[C@@H](O[C@H]1[C@H](O)[C@H]2O)O[C@@H]7CSCCC(=O)[O-])O[C@@H]6CSCCC(=O)[O-])O[C@@H]5CSCCC(=O)[O-])O[C@@H]4CSCCC(=O)[O-])O[C@@H]3CSCCC(=O)[O-].[Na+].[Na+].[Na+].[Na+].[Na+].[Na+] [Sualfadex sodium, 6A,6B,6C,6D,6E,7F-Hexakis-S-(2-carboxyethyl)-6A,6B,6C,6D,6E,6F-hexathio-alpha-cyclodextrin sodium]
Reduction in U18666A induced cholesterol accumulation in the brain ([1]; 0.05%): significant cholesterol-accumulation hindering activity; also recorded: very strong reduction
Heavy staining (number of larvae) [1, 5]: 4
Light staining (number of larvae) [1, 5]: 16
No staining (number of larvae) [1, 5]: 4
Different from placebo ([1]; dose tested 0.05%): *** (*** p<0.001)
Motoric activity of the test animals [2]: improved motoric activity
Dissolved cholesterol concentration ([3]; CD concentration 5 w/w %): 0.016 mg/mL
Dissolved cholesterol concentration ([3]; CD concentration 10 w/w %): 0.028 mg/mL
Dissolved cholesterol concentration ([3]; CD concentration 15 w/w %): 0.051 mg/mL

O=C([O-])CCSC[C@H]1O[C@@H]2O[C@H]3[C@H](O)[C@@H](O)[C@@H](O[C@H]4[C@H](O)[C@@H](O)[C@@H](O[C@H]5[C@H](O)[C@@H](O)[C@@H](O[C@H]6[C@H](O)[C@@H](O)[C@@H](O[C@H]7[C@H](O)[C@@H](O)[C@@H](O[C@H]8[C@H](O)[C@@H](O)[C@@H](O[C@H]9[C@H](O)C(O)[C@@H](O[C@H]1[C@H](O)[C@H]2O)O[C@@H]9CSCCC(=O)[O-])O[C@@H]8CSCCC(=O)[O-])O[C@@H]7CSCCC(=O)[O-])O[C@@H]6CSCCC(=O)[O-])O[C@@H]5CSCCC(=O)[O-])O[C@@H]4CSCCC(=O)[O-])O[C@@H]3CSCCC(=O)[O-].[Na+].[Na+].[Na+].[Na+].[Na+].[Na+].[Na+].[Na+] (stereo partly drawn) [Sugammadex sodium, 6A,6B,6C,6D,6E,7F,6G,6H-Octakis-S-(2-carboxyethyl)-6A,6B,6C,6D,6E,6F,6G,6H-octathio-gamma-cyclodextrin sodium salt]
Reduction in U18666A induced cholesterol accumulation in the brain ([1]; 0.05%, sodium salt): significant cholesterol-accumulation hindering activity; also recorded: very strong reduction
Heavy staining (number of larvae) [1, 5]: 4
Light staining (number of larvae) [1, 5]: 15
No staining (number of larvae) [1, 5]: 5
Different from placebo ([1]; dose tested 0.05%): *** (*** p<0.001)
Motoric activity of the test animals [2]: improved motoric activity
Dissolved cholesterol concentration ([3]; CD concentration 5 w/w %): 0.056 mg/mL
Dissolved cholesterol concentration ([3]; CD concentration 10 w/w %): 0.062 mg/mL
Dissolved cholesterol concentration ([3]; CD concentration 15 w/w %): 0.150 mg/mL
